Columns and labels:
Format in all cases: in vivo
[1] = tested on: VERPE: Veronica persica; assay: Pre-emergence herbicide efficacy at 1280 g/ha, VERPE; settings: visual scoring vs untreated controls
How it was run: (§1)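 Weed seeds were sown in sandy loam, covered with soil, and the soil surface was treated with the compound, formulated as wettable powder or emulsion concentrate, in water containing 0.5% additive at 600 L/ha. Plants then grew in the greenhouse for roughly 3 weeks before percentage efficacy was scored by eye against untreated controls.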

[2] = tested on: ALOMY: Alopecurus myosuroides; assay: Pre-emergence herbicide efficacy at 1280 g/ha, ALOMY; settings: visual scoring after about 3 weeks vs untreated controls
Source text: (§2) Seeds of mono- and dicotyledonous weed plants were placed in plastic pots in sandy loam soil (doubly sown with one species each of mono- or dicotyledonous weed plants per pot) and covered with soil. The compounds of the invention, formulated in the form of wettable powders (WP) or as emulsion concentrates (EC), were then applied to the surface of the covering soil as aqueous suspension or emulsion with addition of 0.5% additive at a water application rate of 600 litres per hectare (converted). After the treatment, the pots were placed in a greenhouse and kept under good growth conditions for the test plants. After about 3 weeks, the efficacy of the preparations was scored visually in comparison with untreated controls as percentages. For example, 100% activity=the plants have died, 0% activity=like control plants. Tables C1 to C12 below show the effects of selected compounds of the general formula (I) according to Table 1 on various harmful plants and at an application rate corresponding to 1280 g/ha, which were obtained by the trial procedure specified above.

[3] = tested on: KCHSC: Kochia scoparia; assay: Pre-emergence herbicide efficacy at 1280 g/ha, KCHSC; settings: visual scoring after about 3 weeks vs untreated controls
How it was run: as §1

[4] = tested on: STEME: Stellaria media; assay: Pre-emergence herbicide efficacy at 1280 g/ha, STEME; settings: visual scoring vs untreated controls
How it was run: as §1

[5] = tested on: KCHSC: Kochia scoparia; assay: Post-emergence herbicidal efficacy at 1280 g/ha, KCHSC; settings: visual rating about 3 weeks after treatment vs untreated controls
How it was run: (§3)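 Visual damage rating was made roughly 3 weeks after treatment, relative to untreated plants, on a scale where 0% means no effect and 100% means plants died. Foliar application was at the one-leaf stage as an aqueous WP/EC spray with 0.5% additive at 600 L/ha water, on greenhouse-grown pot plants.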

[6] = tested on: SETVI: Setaria viridis; assay: Pre-emergence herbicide efficacy at 1280 g/ha, SETVI; settings: visual scoring vs untreated controls
How it was run: as §1

[7] = tested on: STEME: Stellaria media; assay: Post-emergence herbicidal efficacy at 1280 g/ha, STEME; settings: visual rating about 3 weeks after treatment vs untreated controls
How it was run: as §3

[8] = tested on: AMARE: Amaranthus retroflexus; assay: Post-emergence herbicidal efficacy at 1280 g/ha, AMARE; settings: rated visually after about 3 weeks vs untreated controls, 100% = plants have died, 0% = like control plants
How it was run: as §3

[9] = tested on: LOLRI: Lolium rigidum; assay: Pre-emergence herbicide efficacy at 1280 g/ha, LOLRI; settings: visual scoring after about 3 weeks vs untreated controls
Source text: as §2

[10] = tested on: ECHCG: Echinochloa crus-galli; assay: Post-emergence herbicidal efficacy at 1280 g/ha, ECHCG; settings: rated visually after about 3 weeks vs untreated controls, 100% = plants have died, 0% = like control plants
How it was run: as §3

[11] = tested on: VERPE: Veronica persica; assay: Post-emergence herbicidal efficacy at 1280 g/ha, VERPE; settings: visual rating about 3 weeks after treatment vs untreated controls
How it was run: as §3

[12] = tested on: ABUTH: Abutilon theophrasti; assay: Pre-emergence herbicide efficacy at 1280 g/ha, ABUTH; settings: visual scoring after about 3 weeks vs untreated controls
How it was run: as §1

[13] = tested on: POAAN: Poa annua; assay: Post-emergence herbicidal efficacy at 1280 g/ha, POAAN; settings: visual rating about 3 weeks after treatment vs untreated controls
How it was run: as §3

[14] = tested on: SETVI: Setaria viridis; assay: Post-emergence herbicidal efficacy at 1280 g/ha, SETVI; settings: visual rating about 3 weeks after treatment vs untreated controls
How it was run: as §3

[15] = tested on: DIGSA: Digitaria sanguinalis; assay: Pre-emergence herbicide efficacy at 1280 g/ha, DIGSA; settings: visual scoring after about 3 weeks vs untreated controls
How it was run: as §1

[16] = tested on: ABUTH: Abutilon theophrasti; assay: Post-emergence herbicidal efficacy at 1280 g/ha, ABUTH; settings: rated visually after about 3 weeks vs untreated controls, 100% = plants have died, 0% = like control plants
How it was run: as §3

[17] = tested on: ECHCG: Echinochloa crus-galli; assay: Pre-emergence herbicide efficacy at 1280 g/ha, ECHCG; settings: visual scoring after about 3 weeks vs untreated controls
How it was run: as §1

[18] = tested on: DIGSA: Digitaria sanguinalis; assay: Post-emergence herbicidal efficacy at 1280 g/ha, DIGSA; settings: rated visually after about 3 weeks vs untreated controls, 100% = plants have died, 0% = like control plants
How it was run: as §3

[19] = tested on: AMARE: Amaranthus retroflexus; assay: Pre-emergence herbicide efficacy at 1280 g/ha, AMARE; settings: visual scoring after about 3 weeks vs untreated controls
How it was run: as §1

[20] = tested on: POAAN: Poa annua; assay: Pre-emergence herbicide efficacy at 1280 g/ha, POAAN; settings: visual scoring after about 3 weeks vs untreated controls
How it was run: as §1

[21] = tested on: MATIN: Matricaria inodora; assay: Pre-emergence herbicide efficacy at 1280 g/ha, MATIN; settings: visual scoring after about 3 weeks vs untreated controls
How it was run: as §1

[22] = tested on: VERPE: Veronica persica; assay: Post-emergence herbicidal efficacy at 80 g/ha, VERPE; settings: visual rating about 3 weeks after treatment vs untreated controls
Experimental: (§4) Seeds of monocotyledonous and dicotyledonous weeds and crop plants were placed in sandy loam in plastic or organic planting pots, covered with soil and cultivated in a greenhouse under controlled growth conditions. 2 to 3 weeks after sowing, the test plants were treated at the one-leaf stage. The compounds of the invention, formulated in the form of wettable powders (WP) or as emulsion concentrates (EC), were then sprayed onto the green parts of the plants as aqueous suspension or emulsion with addition of 0.5% additive at a water application rate of 600 l/ha (converted). After the test plants had been kept in the greenhouse under optimum growth conditions for about 3 weeks, the activity of the preparations was rated visually in comparison to untreated controls. For example, 100% activity=the plants have died, 0% activity=like control plants. Tables B1 to B10 below show the effects of selected compounds of the general formula (I) according to Table 1 on various harmful plants and an application rate corresponding to 80 g/ha, which were obtained by the experimental procedure mentioned above.

[23] = tested on: AMARE: Amaranthus retroflexus; assay: Pre-emergence herbicide efficacy at 80 g/ha, AMARE; settings: scored visually after about 3 weeks
How it was run: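 Seeds are placed in pots and covered with soil, then the soil surface is treated with the formulated compound in water plus 0.5% additive (600 l/ha equivalent). Plants grow under good greenhouse conditions, and damage is rated visually as a percentage of untreated controls after roughly 3 weeks.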

[24] = tested on: AMARE: Amaranthus retroflexus; assay: Post-emergence herbicidal efficacy at 80 g/ha, AMARE; settings: visual rating about 3 weeks after treatment vs untreated controls
How it was run: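 Visual percent activity versus untreated plants (100% = plants died) was scored roughly 3 weeks after treatment. Plants grew in greenhouse pots of sandy loam and got a post-emergence spray at one-leaf stage: WP or EC compound with 0.5% additive, 600 l/ha water.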

[25] = tested on: ABUTH: Abutilon theophrasti; assay: Pre-emergence herbicide efficacy at 80 g/ha, ABUTH; settings: scored visually after about 3 weeks
Source text: (§5) Seeds of monocotyledonous and dicotyledonous weed plants and crop plants were placed in plastic or organic planting pots and covered with soil. The compounds of the invention, formulated in the form of wettable powders (WP) or as emulsion concentrates (EC), were then applied to the surface of the covering soil as aqueous suspension or emulsion with addition of 0.5% additive at a water application rate equivalent to 600 l/ha. After the treatment, the pots were placed in a greenhouse and kept under good growth conditions for the test plants. After about 3 weeks, the efficacy of the preparations was scored visually in comparison with untreated controls as percentages. For example, 100% activity=the plants have died, 0% activity=like control plants. Tables D1 to D12 below show the effects of selected compounds of the general formula (I) according to Table 1 on various harmful plants and an application rate corresponding to 80 g/ha, which were obtained by the experimental procedure mentioned above.

[26] = tested on: VIOTR: Viola tricolor; assay: Post-emergence herbicidal efficacy at 80 g/ha, VIOTR; settings: visual rating about 3 weeks after treatment vs untreated controls
Experimental: as §4

[27] = tested on: POLCO; assay: Pre-emergence herbicide efficacy at 80 g/ha, POLCO; settings: Polygonum convolvulus, scored visually after about 3 weeks
Source text: as §5

[28] = tested on: DIGSA: Digitaria sanguinalis; assay: Pre-emergence herbicide efficacy at 80 g/ha, DIGSA; settings: scored visually after about 3 weeks
Source text: as §5

[29] = tested on: SETVI: Setaria viridis; assay: Pre-emergence herbicide efficacy at 80 g/ha, SETVI; settings: scored visually after about 3 weeks
Source text: as §5

[30] = tested on: MATIN: Matricaria inodora; assay: Pre-emergence herbicide efficacy at 80 g/ha, MATIN; settings: scored visually after about 3 weeks
Source text: as §5

[31] = tested on: VERPE: Veronica persica; assay: Pre-emergence herbicide efficacy at 80 g/ha, VERPE; settings: scored visually after about 3 weeks
Source text: as §5

Clc1cnc(Cc2c(Br)cccc2Oc2ncc(Cl)cn2)nc1 [Example 1-53]
Pre-emergence efficacy against VERPE in % [1]: 100% | Pre-emergence efficacy against ALOMY [2]: 100% | Pre-emergence efficacy against KCHSC [3]: 100% | Pre-emergence efficacy against STEME in % [4]: 100% | Post-emergence efficacy against KCHSC [5]: 100% | Pre-emergence efficacy against SETVI in % [6]: 100% | Post-emergence efficacy against STEME [7]: 100% | Post-emergence efficacy at 1280 g/ha against AMARE in % [8]: 100% | Pre-emergence efficacy against LOLRI [9]: 100% | Post-emergence efficacy at 1280 g/ha against ECHCG in % [10]: 100% | Post-emergence efficacy against VERPE [11]: 100% | Pre-emergence efficacy against ABUTH [12]: 100% | Post-emergence efficacy against POAAN [13]: 100% | Post-emergence efficacy against SETVI [14]: 100% | Pre-emergence efficacy against DIGSA [15]: 100% | Post-emergence efficacy at 1280 g/ha against ABUTH in % [16]: 100% | Pre-emergence efficacy against ECHCG [17]: 100% | Post-emergence efficacy at 1280 g/ha against DIGSA in % [18]: 90% | Pre-emergence efficacy against AMARE [19]: 100% | Pre-emergence efficacy against POAAN [20]: 100% | Pre-emergence efficacy against MATIN [21]: 100%

Fc1cnc(Oc2cccc(Cl)c2Cc2ncc(Cl)cn2)nc1 [Example 1-57]
Pre-emergence efficacy against VERPE in % [1]: 100% | Pre-emergence efficacy against ALOMY [2]: 100% | Pre-emergence efficacy against KCHSC [3]: 100% | Pre-emergence efficacy against STEME in % [4]: 100% | Post-emergence efficacy against KCHSC [5]: 90% | Pre-emergence efficacy against SETVI in % [6]: 100% | Post-emergence efficacy against STEME [7]: 90% | Post-emergence efficacy at 1280 g/ha against AMARE in % [8]: 90% | Pre-emergence efficacy against LOLRI [9]: 100% | Post-emergence efficacy at 1280 g/ha against ECHCG in % [10]: 90% | Post-emergence efficacy against VERPE [11]: 90% | Pre-emergence efficacy against ABUTH [12]: 100% | Post-emergence efficacy against POAAN [13]: 90% | Post-emergence efficacy against SETVI [14]: 90% | Pre-emergence efficacy against DIGSA [15]: 100% | Post-emergence efficacy at 1280 g/ha against ABUTH in % [16]: 90% | Pre-emergence efficacy against ECHCG [17]: 100% | Post-emergence efficacy at 1280 g/ha against DIGSA in % [18]: 90% | Pre-emergence efficacy against AMARE [19]: 100% | Pre-emergence efficacy against POAAN [20]: 100% | Pre-emergence efficacy against MATIN [21]: 100%

Fc1ccc(Oc2ccccc2Cc2ncc(F)cn2)cc1 [Example 1-67]
Post-emergence efficacy against VERPE [22]: 80% | Pre-emergence efficacy against AMARE in % [23]: 90% | Post-emergence efficacy against AMARE [24]: 100% | Pre-emergence efficacy against ABUTH in % [25]: 100% | Post-emergence efficacy against VIOTR [26]: 100%

Fc1cnc(Oc2c(F)cccc2Cc2ncc(Cl)cn2)nc1 [Example 1-152]
Pre-emergence efficacy against POLCO in % [27]: 90% | Pre-emergence efficacy against AMARE in % [23]: 100% | Pre-emergence efficacy against DIGSA in % [28]: 90% | Post-emergence efficacy against AMARE [24]: 90% | Pre-emergence efficacy against ABUTH in % [25]: 80% | Pre-emergence efficacy against SETVI in % [29]: 80%

Fc1cnc(Cc2cccc(Cl)c2Oc2ncc(F)cn2)nc1 [Example 1-156]
Pre-emergence efficacy against POLCO in % [27]: 80% | Pre-emergence efficacy against AMARE in % [23]: 100% | Pre-emergence efficacy against DIGSA in % [28]: 90% | Post-emergence efficacy against AMARE [24]: 80% | Pre-emergence efficacy against ABUTH in % [25]: 90% | Pre-emergence efficacy against MATIN in % [30]: 80%

Cc1cccc(Cc2ncc(Cl)cn2)c1Oc1ncc(Cl)cn1 [Example 1-166]
Pre-emergence efficacy against POLCO in % [27]: 90% | Pre-emergence efficacy against AMARE in % [23]: 95% | Pre-emergence efficacy against DIGSA in % [28]: 100% | Pre-emergence efficacy against SETVI in % [29]: 80%

Fc1ccc(Cc2c(F)cccc2Oc2ncc(Cl)cn2)nc1 [Example 1-194]
Pre-emergence efficacy against POLCO in % [27]: 90% | Pre-emergence efficacy against AMARE in % [23]: 100% | Pre-emergence efficacy against DIGSA in % [28]: 90% | Post-emergence efficacy against AMARE [24]: 98% | Pre-emergence efficacy against SETVI in % [29]: 100% | Pre-emergence efficacy against VERPE in % [31]: 90%

Reference: US20250221410A1, “SUBSTITUTED 2-C-AZINES AND SALTS THEREOF, AND USE THEREOF AS HERBICIDAL ACTIVE SUBSTANCES” (BAYER AKTIENGESELLSCHAFT, priority 2022, published 2025)
